Tests used:
Format in all cases: in vivo
[1] = test system: Plutella xylostella (Diamond Back Moth); experiment: Example B5: Plutella xylostella (diamond back moth), artificial diet, 24-well; details: 192 h, application rate 200 ppm, eggs, 8 days after infestation, read-out: control in at least one of the two categories (mortality or growth inhibition)
Description: Example B5: Plutella xylostella (Diamond Back Moth)
24-well microtiter plates with artificial diet were treated with aqueous test solutions prepared from 10′000 ppm DMSO stock solutions by pipetting. After drying, Plutella eggs were pipetted through a plastic stencil onto a gel blotting paper and the plate was closed with it. The samples were assessed for mortality and growth inhibition in comparison to untreated samples 8 days after infestation.

[2] = test system: Chilo suppressalis (Striped Rice Stemborer); experiment: Example B4: Chilo suppressalis (striped rice stemborer), artificial diet; details: 144 h, application rate 200 ppm, L2 larvae, 6 days after infestation, read-out: control in at least one of the three categories (mortality, anti-feedant or growth inhibition)
Summary of the method: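 Artificial diet was treated with aqueous dilutions made from 10'000 ppm DMSO stocks, dried, then infested with L2 larvae at 6–8 per well. Mortality, antifeedant effect and growth inhibition were assessed against untreated samples 6 days after infestation.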

[3] = test system: Diabrotica balteata (Corn Root Worm); experiment: Example B1: Diabrotica balteata (corn root worm), sprayed maize sprouts; details: 96 h, application rate 200 ppm, L2 larvae, 4 days after infestation, read-out: control in at least one of the two categories (mortality or growth inhibition)
Description: Example B1: Diabrotica balteata (Corn Root Worm)
Maize sprouts placed onto an agar layer in 24-well microtiter plates were treated with aqueous test solutions prepared from 10′000 ppm DMSO stock solutions by spraying. After drying, the plates were infested with L2 larvae (6 to 10 per well). The samples were assessed for mortality and growth inhibition in comparison to untreated samples 4 days after infestation.

[4] = test system: Spodoptera littoralis (Egyptian Cotton Leaf Worm); experiment: Example B9: Spodoptera littoralis (Egyptian cotton leaf worm), sprayed cotton leaf discs; details: foliar, 72 h, application rate 200 ppm, L1 larvae, 3 days after infestation, read-out: control in at least one of the three categories (mortality, anto-feedant or growth inhibition)
[5] = test system: Spodoptera littoralis (Egyptian Cotton Leaf Worm); experiment: Example B10: Spodoptera littoralis (Egyptian cotton leaf worm), uptake via lettuce roots from agar; details: 144 h, test rate 12.5 ppm, eggs, 6 days after infestation, read-out: control in at least one of the three categories (mortality, anti-feedant, or growth inhibition)
Text: Example B10: Spodoptera Littoralis (Egyptian Cotton Leaf Worm)
Test compounds were applied by pipette from 10′000 ppm DMSO stock solutions into 24-well plates and mixed with agar. Lettuce seeds were placed onto the agar and the multi well plate was closed by another plate which contained also agar. After 7 days the compound was absorbed by the roots and the lettuce grew into the lid plate. The lettuce leaves were then cut off into the lid plate. Spodoptera eggs were pipetted through a plastic stencil onto a humid gel blotting paper and the lid plate was closed with it. The samples were assessed for mortality, anti-feedant effect and growth inhibition in comparison to untreated samples 6 days after infestation.

[6] = test system: Myzus persicae (Green Peach Aphid); experiment: Example B8: Myzus persicae (green peach aphid), intrinsic activity; details: 120 h, test rate 12 ppm, 5 days after infestation
Text: Example B8: Myzus persicae (Green Peach Aphid): Intrinsic Activity
Test compounds prepared from 10′000 ppm DMSO stock solutions were applied by pipette into 24-well microtiter plates and mixed with sucrose solution. The plates were closed with a stretched Parafilm. A plastic stencil with 24 holes was placed onto the plate and infested pea seedlings were placed directly on the Parafilm. The infested plate was closed with a gel blotting paper and another plastic stencil and then turned upside down. The samples were assessed for mortality 5 days after infestation.

[7] = test system: Plutella xylostella (Diamondback Moth); experiment: Example B13: Plutella xylostella (diamondback moth), artificial diet, 96-well; details: 216 h, application rate 500 ppm, eggs/L1 larvae, 9 days after infestation
Description: Example B13: Plutella xylostella (Diamondback Moth)
96-well microtiter plates containing artificial diet were treated with aqueous test solutions, prepared from 10′000 ppm DMSO stock solutions, by a liquid handling robot. After drying, eggs (˜30 per well) were infested onto a netted lid which was suspended above the diet. The eggs hatch and L1 larvae move down to the diet. The samples were assessed for mortality 9 days after infestation.

CC(NC(=O)c1cc(C(F)(F)F)cc(C2(C#N)CC2)c1)c1nc(Br)nn1-c1ccc(C#N)cn1 (centres unmarked) [Compound P1, N-[1-[5-bromo-2-(5-cyano-2-pyridyl)-1,2,4-triazol-3-yl]ethyl]-3-(1-cyanocyclopropyl)-5-(trifluoromethyl)benzamide]
≥ 80%: percent control (mortality or growth inhibition) at 200 ppm [1] | percent control (mortality, anti-feedant or growth inhibition) at 200 ppm [2] | percent control (mortality or growth inhibition) at 200 ppm [3] | percent control (mortality, anti-feedant or growth inhibition) at 200 ppm [4] | percent control (mortality, anti-feedant or growth inhibition) at 12.5 ppm [5]

CC(NC(=O)c1cc(C(F)(F)F)nc(C2(C#N)CC2)c1)c1nc(Br)nn1-c1ncc(OCC(F)F)cn1 (centres unmarked) [Compound P4, N-[1-[5-bromo-2-[5-(2,2-difluoroethoxy)pyrimidin-2-yl]-1,2,4-triazol-3-yl]ethyl]-2-(1-cyanocyclopropyl)-6-(trifluoromethyl)pyridine-4-carboxamide]
≥ 80%: percent control (mortality or growth inhibition) at 200 ppm [1] | percent control (mortality, anti-feedant or growth inhibition) at 200 ppm [2] | percent control (mortality or growth inhibition) at 200 ppm [3] | mortality at 12 ppm [6] | percent control (mortality, anti-feedant or growth inhibition) at 200 ppm [4]

CC(NC(=O)c1cc(C(F)(F)F)cc(C(C)(C)C#N)c1)c1nc(Br)nn1-c1ncc(OC(F)F)cn1 (centres unmarked) [Compound P35, N-[1-[5-bromo-2-[5-(difluoromethoxy)pyrimidin-2-yl]-1,2,4-triazol-3-yl]ethyl]-3-(1-cyano-1-methyl-ethyl)-5-(trifluoromethyl)benzamide]
≥ 80%: percent control (mortality or growth inhibition) at 200 ppm [1] | mortality at 500 ppm [7] | percent control (mortality, anti-feedant or growth inhibition) at 200 ppm [2] | percent control (mortality or growth inhibition) at 200 ppm [3] | mortality at 12 ppm [6] | percent control (mortality, anti-feedant or growth inhibition) at 200 ppm [4] | percent control (mortality, anti-feedant or growth inhibition) at 12.5 ppm [5]
